In the SangsterLogP compilation:

Experiment: method code SF-AS, from DOI: 10.2298/ciceq100329044p
Conditions: pH 7.4

| SMILES | logD |
| --- | --- |
| Cc1nc2ccccc2n1Cc1ccc(Cl)cc1 | 4.07 |
| Cc1nc2ccccc2n1C(=O)c1ccc(Cl)cc1 | 3.95 |
| Cc1nc2ccccc2n1Cc1ccccc1 | 3.51 |
| Cc1nc2ccccc2n1C(=O)c1ccccc1 | 3.38 |
| Cc1ccc(Cn2c(C)nc3ccccc32)cc1 | 4.01 |
| Nc1nc2ccccc2n1C(=O)c1ccccc1 | 2.9 |

The next lines start with the values.

| logD | SMILES |
| --- | --- |
| 3.87 | Cc1ccc(C(=O)n2c(C)nc3ccccc32)cc1 |
| 3.45 | Nc1nc2ccccc2n1C(=O)c1ccc(Cl)cc1 |
| 3.35 | Cc1ccc(C(=O)n2c(N)nc3ccccc32)cc1 |
